Here are results for five molecules from US9957295B2, “Peptides inhibiting cold-inducible RNA binding protein activity” (The Feinstein Institute for Medical Research, priority 2013, dated 2018).

As a reminder, the Kd is the equilibrium constant for the complex coming apart.

“Also recorded” adds a separate entry of the source.

One test has as its target T1, rhMD2 (Homo sapiens, UniProt Q9Y6Y9).
T1 construct: Glu17-Asn160); 10-His (C); purchased R&D Systems; host or cells: E. coli
T1 sequence (Q9Y6Y9 17-160): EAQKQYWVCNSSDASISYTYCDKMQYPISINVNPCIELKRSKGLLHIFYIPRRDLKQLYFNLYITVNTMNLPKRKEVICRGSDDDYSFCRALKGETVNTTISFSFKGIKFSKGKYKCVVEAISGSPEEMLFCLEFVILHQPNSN
The experiment in a line: SPR binding to immobilized rhMD2. Conditions: oligopeptides passed over immobilized rhMD2. As for the experimental part: Analysis of protein-protein and peptide-protein interactions were conducted using the BIAcore T200 instrument (GE Healthcare). Binding reactions were performed in 1×PBS buffer containing 0.01% Tween-20 (pH 7.4). The CM5 dextran chip (flow cell-2) was first activated by injection with 89 μl of 0.1 M […] and 0.1 M N-hydroxysuccinimide. An aliquot of 200 μl of 5 μg/ml of the ligand diluted in 10 mM sodium acetate (pH 4.5) was injected into flow cell-2 of the CM5 chip for immobilization. Next, 135 μl of 1 M ethanolamine (pH 8.2) was then injected to block the remaining active sites. The flow cell-1 without coating with the ligand was used as a control to evaluate nonspecific binding. The binding analyses were performed at flow rate of 30 μl/min at 25° C. To evaluate the binding, the analyte (ranging from 62.5 nM to 1.0 μM for kinetics analysis or 0.5 μM for yes/no binding analysis) was injected into flow cell-1 and -2 and the association of analyte and ligand was recorded respectively by surface plasmon resonance. The signal from the blank channel (flow cell-1) was subtracted from the channel (flow-cell 2) coated with the ligand. Data were analyzed by the BIAcore T200 Evaluation Software. For all samples, a blank injection with buffer alone was subtracted from the resulting reaction surface data. Data were globally fitted to the Lagmuir model for a 1:1 binding.
Surface plasmon resonance (SPR) analysis was utilized to determine the physical interaction and binding affinity between rhCIRP and pattern-recognition receptors and MD2. […] The sensorgrams show association and dissociation of analyte at the indicated concentration passed over to the immobilized ligand on the sensor chip, indicated as analyte/ligand on top of each diagram. […] The region of CIRP that binds to MD2 was determined via the synthesis of 32 oligopeptides (15-mer) covering the entire human CIRP sequence. The oligopeptides were passed over immobilized rhMD2 on the BIAcore instrument, followed by subsequent performance of a series of SPR analyses. Three oligopeptides with high binding affinity were indicated. […] Three oligopeptides, aa 101-115, 106-120 (C22), and 111-125 (C23) bound to rhMD2 with high affinity (FIG. 14 and FIG. 19).

In test [1] the test system is LPS-induced TNF-α production in differentiated THP-1 cells. Briefly: Peptide inhibition of LPS-induced TNF-α production in differentiated THP-1 cells (ELISA). In kind it is cell-based, human. As for the experimental part: Human monocytic THP-1 cells (American Type Culture Collection, Manassas, Va.), were seeded in suspension into T75 tissue culture flask at a density of 1.5×10^6 cells and cultured with RPMI-1640 medium supplemented with 10% heat-inactivated fetal bovine serum, 1% penicillin/streptomycin, 2 mM glutamine and additional 0.05 mM β-mercaptoethanol at 37° C. in a humidified incubator with 5% CO2.
Cells were plated at a density of 5×10^4 per well in 96-well tissue culture plate and incubated with phorbol 12-myristate 13-acetate (20 ng/ml) for 48 h to become differentiated macrophages-like cells before experiment. Cells were used between passages 5 and 12. Cells were pretreated with indicated concentrations of CIRP-derived peptides C22 (SEQ ID NO: 13) or C23 (SEQ ID NO: 12) for 1 h, and then incubated in the absence or presence rmCIRP or LPS (from E. coli O111:B4, Sigma St. Louis, Mo.) with Opti-MEM-medium for 6 h. The cell-free supernatants were assayed for TNF-α by ELISA.
Supernatants were measured for TNF-α levels using a commercially available enzyme-linked immunosorbent assay (ELISA) kits-human TNF-α set (BioSource International, Camarillo, Calif.) according to the manufacturer's instruction.
The CIRP-derived peptides were also found to modulate LPS-induced TNF-α release in differentiated THP-1 cells. […] The doses of C22 or C23 at 2 ng/ml, equivalent to 1.3 pmol/ml and LPS at 10 ng/ml, equivalent to 0.67 pmol/ml, peptides and LPS molar ratios at 2:1 were used to treat cells.
On the technique in general: In an ELISA, binding on a coated surface is turned into a signal by an enzyme label.

Test [2] has as its system MLVEC stimulated with rmCIRP. The experiment in a line: rmCIRP-stimulated mouse lung vascular endothelial cells (MLVEC). Format: cell-based. Conditions: C23 200 ng/ml. The procedure: MLVEC were treated with rmCIRP in the presence of C23 or non-specific oligopeptide P5 (negative control) for 4 hours. Cells were harvested, lysed and the cell lysate analyzed by SDS-PAGE and Western blotting (immunodetection). Referring to FIG. 23A, ICAM-1 expression is abrogated in the presence of 200 ng/ml of the oligopeptide C23.
Similarly, the release of IL-1beta by MLVEC stimulated by rmCIRP was blocked (as determined by ELISA) when 200 ng/ml of the oligopeptide C23 was added to the media, as shown in FIG. 23B. (For FIGS. 23A and 23B: Mean+/−SD, n=3, *P<0.05 vs. groups without C23.)

For the next test, the system named is septic mice (CLP). Briefly: Mouse CLP severe sepsis survival study. In kind it is in vivo. The procedure: Mice were subjected to CLP and treated immediately after operation with the antibiotic imipenem ([…] BW) and resuscitative fluid. At 2 hours after CLP, mice were administered C23 (8 mg/kg BW) or an equivalent volume of normal saline (vehicle) via the internal jugular vein. Survival was then assessed every 12 hours.

The subject of the next test is mice subjected to CLP. The experiment in a line: Mouse CLP sepsis, markers 24 hours post-CLP. In kind it is in vivo. To be noted: 8 mg/kg 2 hours after CLP. As for the experimental part: Mice subjected to CLP were treated 2 hours later with the oligopeptide C23 (8 mg/kg) or saline.
In FIGS. 23A through 23C: Mean+/−SD; n=4-8/group; *P<0.05 vs. sham, #P<0.05 vs. vehicle, one-way ANOVA. mRNA amounts are measured by qPCR; protein levels are measured by ELISA.

A further test has as its system THP-1 cells. The experiment in a line: TNF-α release from differentiated THP-1 cells stimulated with recombinant proteins. Format: cell-based, human. To be noted: 0.3 μg/ml each protein, 8 h, ELISA. As for the experimental part:
As with the murine model, the stimulation of TNF-α, release by rCIRP in a human model was studied. […] These experiments were conducted by incubating differentiated human THP-1 cells with rhCIRP or rmCIRP at the indicated concentrations for 4 h. *P<0.05 vs. no CIRP. Similarly, human PBMC were incubated with the indicated concentrations of rhCIRP for 8 h. *P<0.05 vs. no rhCIRP. Thus, stimulation of cytokine release by CIRP was not attributable to LPS contamination. Furthermore, CIRP-induced cytokine activation was conserved between rodents and humans.
rmCIRP induced TNF-α and HMGB1 release in macrophages (FIGS. 10a, b and c). It was reported that HMGB1 can also stimulate TNF-α release (Andersson, U., et al. High mobility group 1 protein (HMG-1) stimulates proinflammatory cytokine synthesis in human monocytes. J. Exp. Med. 192, 565-570 (2000)). The relationship between CIRP and HMGB1 on stimulating TNF-α release was analyzed by applying respective neutralizing antibodies. […] After 4 h, TNF-α levels in conditioned medium (CM) were assayed by ELISA. Data are mean±s.e.m. from three independent experiments. *P<0.05 vs. rmCIRP+ control IgG. In FIG. 16D, RAW 264.7 cells were pre-incubated with rabbit control IgG or anti-CIRP antibodies at indicated dilutions of 1 mg/ml for 20 min before adding 1.0 μg/ml rmCIRP. After 4 h, TNF-α levels in CM were assayed by ELISA. Data are mean±s.e.m. from three independent experiments. *P<0.05 vs. rmCIRP+ control IgG. THP-1 cells were incubated with 4 μg/ml of anti-CIRP antibodies, anti-HMGB1 antibodies, or non-immunized control IgG for 1 h prior to adding rmCIRP (0.3 μg/ml), rmHMGB1 (0.3 μg/ml), or rmCIRP/rmHMGB1 (0.3 μg/ml, 0.3 μg/ml) for 8 h. *P<0.05 vs. rmCIRP; #P<0.05 vs. rmHMGB1. […] Furthermore, rmCIRP, rmHMGB1, and rmCIRP plus rmHMGB1 induced TNF-α levels of 0.8, 0.6, and 1.6 ng/ml, respectively. […] TNF-α levels in all collected CM were assayed by ELISA. Data are mean±s.e.m. from three or four independent experiments.
Murine macrophage-like RAW 264.7 cells and human monocyte THP-1 cells were obtained from ATCC (Manassas, Va.). […]

A further test concerns the target TLR4 (Homo sapiens, UniProt O00206). Conditions: literature; read-out: KD, binding to TLR4; cited from earlier work.

TLR4, sequence (O00206 24-631 limits assumed, species assumed): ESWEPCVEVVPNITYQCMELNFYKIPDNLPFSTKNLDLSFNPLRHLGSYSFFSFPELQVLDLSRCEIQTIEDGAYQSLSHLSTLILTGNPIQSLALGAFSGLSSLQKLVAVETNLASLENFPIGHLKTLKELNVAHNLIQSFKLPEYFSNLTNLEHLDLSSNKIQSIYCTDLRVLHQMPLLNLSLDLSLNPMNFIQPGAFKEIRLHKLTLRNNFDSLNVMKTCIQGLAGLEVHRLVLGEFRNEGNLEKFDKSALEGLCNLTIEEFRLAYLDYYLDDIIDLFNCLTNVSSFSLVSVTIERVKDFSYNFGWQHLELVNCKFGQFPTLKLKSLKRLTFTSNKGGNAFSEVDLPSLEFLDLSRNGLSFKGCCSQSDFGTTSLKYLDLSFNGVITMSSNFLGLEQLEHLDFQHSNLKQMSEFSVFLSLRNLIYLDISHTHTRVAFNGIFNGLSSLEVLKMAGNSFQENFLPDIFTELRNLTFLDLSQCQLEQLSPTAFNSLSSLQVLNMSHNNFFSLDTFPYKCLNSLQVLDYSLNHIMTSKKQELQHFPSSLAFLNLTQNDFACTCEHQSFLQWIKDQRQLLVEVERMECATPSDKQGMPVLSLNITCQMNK

Consider “GGRGRGRGFSRGGGD (fragment of CIRP) [C22, 15-mer oligopeptide derived from human CIRP]”, for which the “binding affinity of 15-mer oligopeptides to rhMD2 (in words)” value (“binding affinity of 15-mer oligopeptides” for short) with rhMD2 is listed as “high affinity”. Moreover, the “effect on LPS-induced TNF-α release in THP-1 cells (in words)” value (“effect on LPS-induced TNF-α release” for short) in test [1] is “inhibit”.

“GRGFSRGGGDRGYGG (fragment of CIRP) [C23, 15-mer oligopeptide derived from human CIRP]”: the “ICAM-1 expression in MLVEC” value in test [2] (4 hours, Western blot) is reported as “abrogated”. In addition, the “release of IL-1beta by MLVEC” value in test [2] (ELISA) is “blocked”. The “survival (Kaplan-Meier, in words)” value in the test with septic mice (CLP) (8 mg/kg BW 2 hours after CLP, all vehicle mice died within 48 hours) was “some of C23-treated mice lived longer”. The same molecule came in with an average survival time in the test on septic mice (CLP) (8 mg/kg BW via internal jugular vein 2 hours after CLP, with imipenem) of 44.2 h. The “serum levels of TNF-α and IL-6” value in the test with mice subjected to CLP is recorded as “lower”. For the same molecule, the “expression of E-selectin, ICAM-1, TNF-α and IL-1β in the lungs” value with mice subjected to CLP (24 hours post-CLP) is listed as “significant decrease”. In addition, the “binding affinity of 15-mer oligopeptides” value in the test with rhMD2 is “high affinity; also recorded: highest affinity”. The “effect on LPS-induced TNF-α release” value in test [1] was “inhibit”.

As for “RGFFRGGRGRGRGFS (fragment of CIRP) [C21, 15-mer oligopeptide derived from human CIRP]”, the “binding affinity of 15-mer oligopeptides” value with rhMD2 is recorded as “high affinity”. Besides, in test [1], the “effect on LPS-induced TNF-α release” value is “does not suppress”.

B1: rmHMGB1: recombinant HMGB1 produced as in Yang et al. 2004 (protein, UniProt P63158 1-215, looked up)
High mobility group protein B1: MGKGDPKKPRGKMSSYAFFVQTCREEHKKKHPDASVNFSEFSKKCSERWKTMSAKEKGKFEDMAKADKARYEREMKTYIPPKGETKKKFKDPNAPKRPPSAFFLFCSEYRPKIKGEHPGLSIGDVAKKLGEMWNNTAADDKQPYEKKAAKLKEKYEKDIAAYRAKGKPDAAKKGVVKAEKSKKKKEEEDDEEDEEDEEEEEEEEDEDEEEDDDDE
B1: in the test with THP-1 cells, the “induced TNF-α levels” value is 0.6 ng/mL.

B2: rhMD2: recombinant human MD2 (Glu17-Asn160) with 10-His tag, expressed from E. coli, R&D Systems (protein)
chain: EAQKQYWVCNSSDASISYTYCDKMQYPISINVNPCIELKRSKGLLHIFYIPRRDLKQLYFNLYITVNTMNLPKRKEVICRGSDDDYSFCRALKGETVNTTISFSFKGIKFSKGKYKCVVEAISGSPEEMLFCLEFVILHQPNSNHHHHHHHHHH
In the case of B2, the dissociation constant Kd in the test with TLR4 was 62.9 nM.
